# Values of other authors as cited in patent US10016482B2, “Insulin independence among patients with diabetes utilizing an optimized hamster REG3 gamma peptide” (priority 2014, dated 2018).
# Read-outs that look alike come from different tables or passages of the source. No end group written: not given here.
# Columns and labels:
# [1] = tested on: human extra-islet pancreatic exocrine tissue; details: in vitro; exocrine ductal tissue separated from endocrine beta cells
# [2] = tested on: new small islets developing from non-endocrine tissue
# [3] = tested on: patients with type 1 diabetes; details: for study subjects / patients dropping out of the clinical trials due to local side-effects: man, local injection site reactions (pain, bruising, infection, skin site reactions)
sequence,measurement,setting,value
"IGLHDPSHGTLPNGS [hamster Reg3 gamma peptide, native 15 amino acid hamster Reg3 gamma peptide]",transformation of exocrine ductal tissue,[1],transform into new beta cells
same,"levels of new islet markers (NGN3, NKX6.1, SOX9, INS)",[2]; five days after treatment,increased levels
same,increase in the volume of new small islets,[2]; islets developing from non-endocrine tissue,2 fold
same,increase in endogenous insulin production,"[3]; by day 54, type 1 patients with no baseline c-peptide",27%
same,study subjects / patients dropping out of the clinical trials due to local side-effects,[3]; listed as 15-amino acid hamster Reg3 gamma peptide,⅓
same,study subjects / patients dropping out of the clinical trials due to local side-effects,[3]; listed as 15 amino acid hamster Reg3gamma peptide,more than ⅓
same,study subjects / patients dropping out of the clinical trials due to local side-effects,[3]; listed as hamster Reg3 gamma 15 amino acid peptide,⅓
same,rise in stimulated c-peptide,[3]; type 1 patients with no detectable c-peptide at baseline,27%
same,insulin requirements,"[3]; type 1 patients, within 54 days of usage",significant reduction
